Patent US11090321B2, “Mixture of non-digestible oligosaccharides for stimulating the immune system” (N.V. Nutricia, priority 2009, dated 2021)

Tested on: C57BL/6 mice
Assay: Delayed-type hypersensitivity (DTH) ear swelling response after Influvac vaccination in diet-supplemented mice
Assay type: in vivo, mouse
Procedure: The effect of diets comprising 2′-FL and/or betagalacto-oligosaccharides was tested in a mouse model wherein a response to an antigen is measured by a delayed-type hypersensitivity (DTH) response. This DTH response in the ears after local challenge with an antigen present in a vaccine is a measure of Th1 cell proliferation. During response to infection and/or vaccination Th1 cells proliferate in response to the challenge with the antigen. These Th1 cells infiltrate the ear when the ear is subsequently challenged with the antigen and cause swelling. Infiltration with the Th1 cells in the ear takes about 24 h and the swelling is therefore delayed. The more Th1 cells proliferated during initial vaccination and/or infection, the more DTH upon challenging with the antigen is observed.
6-8 Weeks old female C57BL/6 mice (Charles River) received semi-purified AIN-93G-based diets (Research Diet Service, Wijk bij Duurstede, the Netherlands), comprising
1) 1 wt % betagalacto-oligosaccharide (GOS, source Vivinal GOS, Borculo Domo), fructo-oligosaccharide (FOS, Source RaftilineHP, Orafti) and galacturonic acid oligosaccharide (source AOS) in a 9:1:1.1 ratio. AOS were produced from pectin (Südzucker AG, Mannheim, Germany), with a DP of 1-20. It consists of approximately 75% galacturonic acid oligomers, based on total weight,
2) 1 wt % 2′fucosyllactose (2′-FL),
3) 1 wt % betagalacto-oligosaccharides, fructo-oligosaccharides and galacturonic acid oligosaccharide (AOS) in a 9:1:1.1 ratio and 1 wt % 2′-FL.
4) 0.5 wt % betagalacto-oligosaccharides, fructo-oligosaccharides and galacturonic acid oligosaccharide (AOS) in a 9:1:1.1 ratio and 0.5 wt % 2′-FL.
All groups were compared to the unsupplemented control diet (control and sham control group). Dietary supplementation started 14 days before the first vaccination and lasted until the end of the experiment, 31 days after the first vaccination.
Vaccination experiments were performed using Influvac (Solvay Pharmaceuticals, Weesp, the Netherlands) from season 2005/2006. The mice received a primary vaccination and a booster vaccination, consisting of a subcutaneous (sc) injection of a 1:1 mix of vaccine and adjuvant in a total volume of 100 μl. The booster vaccination was given at 21 days after the primary vaccination. The experiments ended 10 days after booster vaccination. Negative control groups that were included received injections with a 1:1 mix of PBS and adjuvant in a total volume of 100 μl (sham control). Ear thickness was measured in duplicate before vaccine challenge and 24 h thereafter, using a digital micrometer (Mitutoyo Digimatic 293561, Veenendaal, the Netherlands). The DTH response was calculated by subtracting the basal ear thickness from the value at 24 h after challenge.

2′-fucosyllactose [1% 2′-FL]
increase of DTH response (compared with control diet): 71%
effect on ear swelling / DTH response (in words) (compared with control-fed animals): increased ear swelling
Δ DTH (ear swelling DTH minus sham control): 80.4 μm
Relative DTH (Δ DTH relative to control diet (=1)): 1.71
